Assay results taken from US12139520B2 (priority 2020, dated 2024).
Bridge positions count the residues as written; N and C are the ends. Square brackets hold non-standard residues; d marks the D form. Peptide text beside a SMILES is read from it. Hyp = O=C(O)[C@@H]1C[C@@H](O)CN1

How the values were obtained:
[1] = Physical stability of peptide analogues (Thioflavin T fibrillation); assay type: physicochemical; conditions: maximum ThT signal normalized between hAMY maximum and buffer background; 40° C., shaking, four days; pH 7 per table title
In short: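 Maximum ThT emission at 480 nm, after LOESS smoothing, is given as percent of the span from buffer background to hAMY. Conditions: 50 mM buffer at pH 4 or 7, 4 μM dye, 40 °C, repeated shaking, readings every 10 min for four days.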

hAMY3 receptor = target: T1, hAMY3 receptor (Homo sapiens, UniProt O60896+P30988); experiment: cAMP assay for in vitro receptor activation, hAMY3-R; assay type: cell-based; conditions: cAMP assay, hAMY3 receptor; read-out: hAMY3R EC50
T1 sequence (P30988 25-474): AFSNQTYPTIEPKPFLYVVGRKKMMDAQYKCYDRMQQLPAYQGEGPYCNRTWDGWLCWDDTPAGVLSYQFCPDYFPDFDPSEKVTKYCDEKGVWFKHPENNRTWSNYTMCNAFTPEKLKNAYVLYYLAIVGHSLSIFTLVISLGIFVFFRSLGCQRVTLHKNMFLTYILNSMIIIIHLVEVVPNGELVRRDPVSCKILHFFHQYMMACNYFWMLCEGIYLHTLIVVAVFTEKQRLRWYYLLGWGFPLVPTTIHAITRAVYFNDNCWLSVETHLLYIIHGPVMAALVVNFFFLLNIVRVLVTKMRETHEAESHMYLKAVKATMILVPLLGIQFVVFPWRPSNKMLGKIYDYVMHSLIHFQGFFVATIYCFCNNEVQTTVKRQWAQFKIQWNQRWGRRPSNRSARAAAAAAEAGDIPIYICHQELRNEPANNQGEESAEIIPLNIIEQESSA
T1 sequence (O60896 24-148 partner): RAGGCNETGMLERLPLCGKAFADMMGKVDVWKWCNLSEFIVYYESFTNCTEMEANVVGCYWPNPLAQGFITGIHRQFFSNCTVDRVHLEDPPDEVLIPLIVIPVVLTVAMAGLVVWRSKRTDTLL
In short: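 Thawed cells from a sub-cloned monoclonal hAMY3-overexpressing line are plated in DPBS containing 0.05% casein and 0.5 mM IBMX. Test compounds are added immediately at graded doses for 30 min at room temperature. Reagents for cAMP detection are then added, and TR-FRET is recorded after one hour.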

| Compound | Max ThT signal (%) [1] | EC50 (hAMY3 receptor) |
| --- | --- | --- |
| CC[C@H](C)[C@H](NC(=O)[C@H](CCC(N)=O)NC(=O)[C@H](Cc1c[nH]cn1)NC(=O)[C@H](C)NC(=O)[C@H](CC(C)C)NC(=O)[C@H](CCCNC(=N)N)NC(=O)[C@H](CCC(N)=O)NC(=O)[C@@H](NC(=O)[C@@H](NC(=O)[C@@H]1CSSC[C@H](NC(=O)CN)C(=O)N[C@@H](CCCNC(=N)N)C(=O)N[C@@H](Cc2ccccc2)C(=O)NCC(=O)N[C@@H]([C@@H](C)O)C(=O)N1)[C@@H](C)O)C(C)C)C(=O)N[C@@H](Cc1ccc(O)cc1)C(=O)N[C@@H](CCC(N)=O)C(=O)N[C@@H](Cc1ccccc1)C(=O)N[C@H](C(=O)N[C@@H](CC(=O)O)C(=O)N[C@@H](CCCCN)C(=O)N[C@@H](CC(=O)O)C(=O)N[C@@H](CCCCN)C(=O)N[C@@H](CC(=O)O)C(=O)N[C@@H](CC(N)=O)C(=O)N[C@H](C(=O)N[C@@H](C)C(=O)N1CCC[C@H]1C(=O)N[C@@H](CCCNC(=N)N)C(=O)N[C@@H](CO)C(=O)N[C@@H](CC(N)=O)C(=O)N[C@H](C(=O)N[C@@H](CO)C(=O)N1CCC[C@H]1C(=O)N[C@@H](CCC(N)=O)C(=O)NCC(=O)N1C[C@H](O)C[C@H]1C(N)=O)[C@@H](C)CC)C(C)C)[C@@H](C)O [compound 158] (H-GCRFGTCTVQRLAHQIYQFTDKDKDNVAPRSNISPQG[Hyp]-NH2; disulfide 2-7; N-terminus assumed) | 6.300% | 0.048 nM |
| CC[C@H](C)[C@H](NC(=O)[C@H](CCCCN)NC(=O)[C@@H](NC(=O)[C@H](CCCNC(=N)N)NC(=O)[C@@H]1CCCN1C(=O)[C@H](C)NC(=O)[C@@H](NC(=O)[C@H](CC(N)=O)NC(=O)[C@H](CC(=O)O)NC(=O)[C@H](CCCCN)NC(=O)[C@H](CC(=O)O)NC(=O)[C@H](CCCCN)NC(=O)[C@H](CC(=O)O)NC(=O)[C@@H](NC(=O)[C@H](Cc1ccccc1)NC(=O)[C@H](CCC(N)=O)NC(=O)[C@H](Cc1ccc(O)cc1)NC(=O)[C@@H](NC(=O)[C@H](CCC(N)=O)NC(=O)[C@H](Cc1c[nH]cn1)NC(=O)[C@H](C)NC(=O)[C@H](CC(C)C)NC(=O)[C@H](CCCNC(=N)N)NC(=O)[C@H](CCC(N)=O)NC(=O)[C@@H](NC(=O)[C@@H](NC(=O)[C@@H]1CSSC[C@H](NC(=O)CN)C(=O)N[C@@H](CCCNC(=N)N)C(=O)N[C@@H]([C@@H](C)O)C(=O)NCC(=O)N[C@@H]([C@@H](C)O)C(=O)N1)[C@@H](C)O)C(C)C)[C@@H](C)CC)[C@@H](C)O)C(C)C)[C@@H](C)O)C(=O)NCC(=O)N1CCC[C@H]1C(=O)N[C@@H](CCC(N)=O)C(=O)NCC(=O)N1C[C@H](O)C[C@H]1C(N)=O [compound 161] (H-GCRTGTCTVQRLAHQIYQFTDKDKDNVAPRTKIGPQG[Hyp]-NH2; disulfide 2-7; N-terminus assumed) | 14.300% | 0.051 nM |
| CC[C@H](C)[C@H](NC(=O)[C@H](CCC(N)=O)NC(=O)[C@H](Cc1c[nH]cn1)NC(=O)[C@H](C)NC(=O)[C@H](CC(C)C)NC(=O)[C@H](CCCNC(=N)N)NC(=O)[C@H](CCC(N)=O)NC(=O)[C@@H](NC(=O)[C@@H](NC(=O)[C@@H]1CSSC[C@H](NC(=O)CN)C(=O)N[C@@H](CCCNC(=N)N)C(=O)N[C@@H]([C@@H](C)O)C(=O)NCC(=O)N[C@@H]([C@@H](C)O)C(=O)N1)[C@@H](C)O)C(C)C)C(=O)N[C@@H](Cc1ccc(O)cc1)C(=O)N[C@@H](CCC(N)=O)C(=O)N[C@@H](Cc1ccccc1)C(=O)N[C@H](C(=O)N[C@@H](CC(=O)O)C(=O)N[C@@H](CCCCN)C(=O)N[C@@H](CC(=O)O)C(=O)N[C@@H](CCCCN)C(=O)N[C@@H](CC(=O)O)C(=O)N[C@@H](CC(N)=O)C(=O)N[C@H](C(=O)N[C@@H](C)C(=O)N1CCC[C@H]1C(=O)N[C@@H](CCCNC(=N)N)C(=O)N[C@H](C(=O)N[C@@H](CC(N)=O)C(=O)N[C@H](C(=O)N[C@@H](CO)C(=O)N1CCC[C@H]1C(=O)N[C@@H](CC(N)=O)C(=O)NCC(=O)N1C[C@H](O)C[C@H]1C(N)=O)C(C)C)[C@@H](C)O)C(C)C)[C@@H](C)O [compound 163] (H-GCRTGTCTVQRLAHQIYQFTDKDKDNVAPRTNVSPNG[Hyp]-NH2; disulfide 2-7; N-terminus assumed) | 2.000% | 0.053 nM |

The remaining lines, values ahead:

| Max ThT signal (%) [1] | EC50 (hAMY3 receptor) | Compound |
| --- | --- | --- |
| 5.100% | 0.04 nM | CC[C@H](C)[C@@H]1NC(=O)[C@H](CCCNC(=N)N)NC(=O)[C@@H](NC(=O)CN)CSSC[C@@H](C(=O)N[C@H](C(=O)N[C@H](C(=O)N[C@@H](CCC(N)=O)C(=O)N[C@@H](CCCNC(=N)N)C(=O)N[C@@H](CC(C)C)C(=O)N[C@@H](C)C(=O)N[C@@H](Cc2c[nH]cn2)C(=O)N[C@@H](CCC(N)=O)C(=O)N[C@H](C(=O)N[C@@H](Cc2ccc(O)cc2)C(=O)N[C@@H](CCC(N)=O)C(=O)N[C@@H](Cc2ccccc2)C(=O)N[C@H](C(=O)N[C@@H](CC(=O)O)C(=O)N[C@@H](CCCCN)C(=O)N[C@@H](Cc2ccccc2)C(=O)N[C@@H](CCCCN)C(=O)N[C@@H](CC(=O)O)C(=O)N[C@@H](CC(N)=O)C(=O)N[C@H](C(=O)N[C@@H](C)C(=O)N2CCC[C@H]2C(=O)N[C@@H](CCCNC(=N)N)C(=O)N[C@@H](CO)C(=O)N[C@@H](CCCCN)C(=O)N[C@H](C(=O)N[C@@H](CO)C(=O)N2CCC[C@H]2C(=O)N[C@@H](CCC(N)=O)C(=O)N[C@H](C(=O)N2C[C@H](O)C[C@H]2C(N)=O)[C@@H](C)O)[C@@H](C)CC)C(C)C)[C@@H](C)O)[C@@H](C)CC)C(C)C)[C@@H](C)O)NC(=O)[C@H]([C@@H](C)O)NC(=O)CNC1=O [compound 147] (H-GCRIGTCTVQRLAHQIYQFTDKFKDNVAPRSKISPQT[Hyp]-NH2; disulfide 2-7; N-terminus assumed) |
| 1.900% | 0.041 nM | CC[C@H](C)[C@H](NC(=O)[C@H](CCC(N)=O)NC(=O)[C@H](Cc1c[nH]cn1)NC(=O)[C@H](C)NC(=O)[C@H](CC(C)C)NC(=O)[C@H](CCCNC(=N)N)NC(=O)[C@H](CCC(N)=O)NC(=O)[C@@H](NC(=O)[C@@H](NC(=O)[C@@H]1CSSC[C@H](NC(=O)CN)C(=O)N[C@@H](CCCNC(=N)N)C(=O)N[C@@H](Cc2ccccc2)C(=O)NCC(=O)N[C@@H]([C@@H](C)O)C(=O)N1)[C@@H](C)O)C(C)C)C(=O)N[C@@H](Cc1ccc(O)cc1)C(=O)N[C@@H](CCC(N)=O)C(=O)N[C@@H](Cc1ccccc1)C(=O)N[C@H](C(=O)N[C@@H](CC(=O)O)C(=O)N[C@@H](CCCCN)C(=O)N[C@@H](CC(=O)O)C(=O)N[C@@H](CCCCN)C(=O)N[C@@H](CC(=O)O)C(=O)N[C@@H](CC(N)=O)C(=O)N[C@H](C(=O)N[C@@H](C)C(=O)N1CCC[C@H]1C(=O)N[C@@H](CCCNC(=N)N)C(=O)N[C@@H](CO)C(=O)N[C@@H](CCCCN)C(=O)N[C@H](C(=O)NCC(=O)N1CCC[C@H]1C(=O)N[C@@H](CCC(N)=O)C(=O)NCC(=O)N1C[C@H](O)C[C@H]1C(N)=O)C(C)C)C(C)C)[C@@H](C)O [compound 152] (H-GCRFGTCTVQRLAHQIYQFTDKDKDNVAPRSKVGPQG[Hyp]-NH2; disulfide 2-7; N-terminus assumed) |
| 15.300% | 0.047 nM | CC[C@H](C)[C@H](NC(=O)[C@H](CCC(N)=O)NC(=O)[C@H](Cc1c[nH]cn1)NC(=O)[C@H](C)NC(=O)[C@H](CC(C)C)NC(=O)[C@H](CCCNC(=N)N)NC(=O)[C@H](CCC(N)=O)NC(=O)[C@@H](NC(=O)[C@@H](NC(=O)[C@@H]1CSSC[C@H](NC(=O)CN)C(=O)N[C@@H](CCCNC(=N)N)C(=O)N[C@@H]([C@@H](C)O)C(=O)NCC(=O)N[C@@H]([C@@H](C)O)C(=O)N1)[C@@H](C)O)C(C)C)C(=O)N[C@@H](Cc1ccc(O)cc1)C(=O)N[C@@H](CCC(N)=O)C(=O)N[C@@H](Cc1ccccc1)C(=O)N[C@H](C(=O)N[C@@H](CC(=O)O)C(=O)N[C@@H](CCCCN)C(=O)N[C@@H](CC(=O)O)C(=O)N[C@@H](CCCCN)C(=O)N[C@@H](CC(=O)O)C(=O)N[C@@H](CC(N)=O)C(=O)N[C@H](C(=O)N[C@@H](C)C(=O)N1CCC[C@H]1C(=O)N[C@@H](CCCNC(=N)N)C(=O)N[C@H](C(=O)N[C@@H](CCCCN)C(=O)N[C@H](C(=O)NCC(=O)N1CCC[C@H]1C(=O)N[C@@H](CCC(N)=O)C(=O)NCC(=O)N[C@@H](Cc1ccc(O)cc1)C(N)=O)C(C)C)[C@@H](C)O)C(C)C)[C@@H](C)O [compound 156] (H-GCRTGTCTVQRLAHQIYQFTDKDKDNVAPRTKVGPQGY-NH2; disulfide 2-7; N-terminus assumed) |
